Measured values: ChEMBL document CHEMBL1201862, “PubChem BioAssay data set” (2004)
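Compound exposure: 48 hours, 5 concentrations, 96-well plates. The concentration for 50% growth inhibition is given as GI50.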 Activity calls are given as the source filed them. Cut-off read from the data, not from the text of the source: active = GI50 up to about 1.1 µM and inactive = higher.

What was measured:
Experiment in all cases: DTP human tumour cell line panel, 48 h
ACHN = tested on: ACHN
786-0 = tested on: 786-0
TK-10 = tested on: TK-10
SK-OV-3 = tested on: SK-OV-3
SK-MEL-5 = tested on: SK-MEL-5
SNB-19 = tested on: SNB-19
OVCAR-5 = tested on: OVCAR-5
NCI-H226 = tested on: NCI-H226
CCRF-CEM = tested on: CCRF-CEM
KM12 = tested on: KM12
A549 = tested on: A549
CAKI-1 = tested on: CAKI-1
U-251 = tested on: U-251
OVCAR-4 = tested on: OVCAR-4
SF-268 = tested on: SF-268
MDA-MB-435 = tested on: MDA-MB-435
Hs-578T = tested on: Hs-578T
DU-145 = tested on: DU-145
PC-3 = tested on: PC-3

Measured: GI50

CCOC(=O)c1cnc2[nH]c(=O)c3ccccc3n2c1=O
inactive: ACHN > 100 µM | 786-0 > 100 µM | TK-10 > 100 µM | SK-OV-3 > 100 µM | SK-MEL-5 > 100 µM | SNB-19 > 100 µM | OVCAR-5 > 100 µM | NCI-H226 > 100 µM | CCRF-CEM > 100 µM | KM12 > 100 µM | A549 > 100 µM | CAKI-1 > 100 µM | U-251 > 100 µM | OVCAR-4 > 100 µM | SF-268 94.6 µM

CC(=O)O[C@H]1CC[C@@]2(C)C(=CC[C@@H]3C2CC[C@]2(C)C(=O)NC(=O)CC32)C1 (stereo not given in full)
inactive: ACHN > 100 µM | 786-0 63.5 µM | TK-10 > 100 µM | SK-OV-3 > 100 µM | SK-MEL-5 > 100 µM | SNB-19 > 100 µM | OVCAR-5 > 100 µM | NCI-H226 > 100 µM | CCRF-CEM > 73.8 µM | KM12 > 100 µM | A549 > 100 µM | CAKI-1 > 100 µM | U-251 58.6 µM | OVCAR-4 > 100 µM | SF-268 > 100 µM

COC(=O)C(Cc1nc2ccccc2nc1C)/C(=N\NC(N)=O)C(=O)Nc1cccc([N+](=O)[O-])c1 (stereo not given)
inactive: ACHN > 100 µM | 786-0 > 100 µM | TK-10 > 100 µM | SK-OV-3 > 100 µM | SK-MEL-5 > 100 µM | SNB-19 > 100 µM | OVCAR-5 > 100 µM | NCI-H226 > 100 µM | CCRF-CEM 29.6 µM | KM12 95.9 µM | A549 > 100 µM | CAKI-1 > 100 µM | U-251 37.6 µM | OVCAR-4 > 100 µM | SF-268 64.9 µM

CCC(=O)NC(Nc1cc(C)on1)(C(F)(F)F)C(F)(F)F
inactive: ACHN > 100 µM | 786-0 > 100 µM | TK-10 > 100 µM | SK-OV-3 > 100 µM | SK-MEL-5 > 100 µM | SNB-19 > 100 µM | OVCAR-5 > 100 µM | NCI-H226 > 100 µM | MDA-MB-435 > 100 µM | Hs-578T > 100 µM | CCRF-CEM > 100 µM | KM12 > 100 µM | A549 > 100 µM | CAKI-1 > 100 µM | U-251 > 100 µM | DU-145 > 100 µM | SF-268 > 100 µM

Cc1cc(C)c(N[S+]([O-])c2cccc([N+](=O)[O-])c2)c(C)c1 (stereo not given)
inactive: ACHN > 100 µM | 786-0 > 100 µM | TK-10 > 100 µM | PC-3 > 100 µM | SNB-19 > 100 µM | OVCAR-5 > 100 µM | NCI-H226 > 100 µM | MDA-MB-435 > 100 µM | CCRF-CEM > 100 µM | KM12 > 100 µM | A549 > 100 µM | U-251 > 100 µM | DU-145 > 100 µM | SF-268 > 100 µM

CN(c1nc(=[N+](C)C)ss1)C1CCCCC1
inactive: ACHN > 100 µM | 786-0 > 100 µM | TK-10 > 100 µM | SK-OV-3 > 100 µM | SK-MEL-5 68.7 µM | SNB-19 70.5 µM | OVCAR-5 > 100 µM | NCI-H226 > 100 µM | CCRF-CEM 6.92 µM | KM12 58.5 µM | A549 38.3 µM | CAKI-1 > 100 µM | U-251 33.4 µM | OVCAR-4 > 100 µM | SF-268 60.1 µM

O=C1Nc2cccc(Cl)c2/C1=C\c1cccnc1
inactive: ACHN 10.8 µM | 786-0 7.43 µM | TK-10 17.8 µM | SK-OV-3 4.12 µM | SK-MEL-5 11.4 µM | PC-3 14.8 µM | SNB-19 3.7 µM | OVCAR-5 3.77 µM | MDA-MB-435 5.53 µM | Hs-578T 14.2 µM | CCRF-CEM 4.58 µM | KM12 5.96 µM | A549 11.1 µM | CAKI-1 10.2 µM | U-251 6.47 µM | OVCAR-4 12.7 µM | DU-145 6.37 µM | SF-268 7.24 µM

COc1ccc2nc3cc(Cl)ccc3c(Sc3ccc([N+](=O)[O-])cc3C)c2c1
inactive: ACHN > 100 µM | 786-0 > 100 µM | TK-10 > 100 µM | SK-OV-3 > 100 µM | SK-MEL-5 > 100 µM | SNB-19 > 100 µM | OVCAR-5 > 100 µM | NCI-H226 > 100 µM | CCRF-CEM > 100 µM | KM12 > 100 µM | A549 > 100 µM | CAKI-1 > 100 µM | U-251 > 100 µM | OVCAR-4 > 100 µM | SF-268 > 100 µM

CN(CCN1C(=O)c2cccc3cccc(c23)C1=O)CCN1C(=O)c2cccc3cccc(c23)C1=O
inactive: ACHN 7.69 µM | 786-0 9.02 µM | TK-10 14.1 µM | SK-OV-3 4.29 µM | SK-MEL-5 > 100 µM | PC-3 > 100 µM | SNB-19 3.17 µM | OVCAR-5 > 100 µM | NCI-H226 17.5 µM | MDA-MB-435 > 100 µM | Hs-578T 12 µM | CCRF-CEM 2.18 µM | KM12 > 100 µM | A549 27.6 µM | CAKI-1 > 100 µM | U-251 12.2 µM | OVCAR-4 > 100 µM | DU-145 > 100 µM | SF-268 27.7 µM

C=CCCCCCC(O)C(O)C/C=C\C/C=C\CC (stereo not given)
inactive: ACHN > 18.8 µM | 786-0 > 18.8 µM | TK-10 > 18.8 µM | SK-OV-3 > 18.8 µM | SK-MEL-5 > 17.5 µM | SNB-19 > 18.8 µM | OVCAR-5 > 18.8 µM | NCI-H226 > 18.8 µM | CCRF-CEM > 18.8 µM | KM12 > 18.8 µM | A549 > 18.8 µM | CAKI-1 > 18.8 µM | U-251 > 18.8 µM | OVCAR-4 > 18.8 µM | SF-268 > 18.8 µM

CC(=O)OCC1OC(n2c3c(cc(C#N)c2=S)CCCCCC3)C(OC(C)=O)C(OC(C)=O)C1OC(C)=O (stereo not given)
inactive: ACHN > 100 µM | 786-0 99.8 µM | TK-10 > 100 µM | SK-MEL-5 72.1 µM | PC-3 > 100 µM | SNB-19 > 100 µM | OVCAR-5 > 100 µM | NCI-H226 > 100 µM | MDA-MB-435 > 100 µM | Hs-578T 97.9 µM | CCRF-CEM 47.3 µM | KM12 > 100 µM | A549 > 100 µM | CAKI-1 > 10 µM | U-251 91 µM | OVCAR-4 > 100 µM | DU-145 > 100 µM | SF-268 > 100 µM

COCOCC[C@@H]1CC=CC(NC(=O)OCc2ccccc2)C1/C=C/C(=O)CCC1OCCO1 (stereo not given in full)
inactive: ACHN 36.6 µM | 786-0 48.4 µM | TK-10 46.8 µM | SK-OV-3 54.5 µM | SK-MEL-5 55.2 µM | SNB-19 > 100 µM | OVCAR-5 > 72.8 µM | NCI-H226 46.7 µM | CCRF-CEM 17.3 µM | KM12 18.8 µM | A549 75.5 µM | CAKI-1 44.2 µM | U-251 25.7 µM | OVCAR-4 29 µM | SF-268 34 µM

CC1=C(C(=O)Nc2c(C)cccc2C)C(c2ccc3c(c2)OCO3)C(C(=O)Nc2c(C)cccc2C)=C(C)N1
inactive: ACHN 17.5 µM | 786-0 13.7 µM | TK-10 24.7 µM | SK-OV-3 77.3 µM | SNB-19 15.3 µM | OVCAR-5 19.1 µM | NCI-H226 17.5 µM | CCRF-CEM 7.36 µM | KM12 15.3 µM | A549 19.7 µM | CAKI-1 25.1 µM | U-251 15.5 µM | OVCAR-4 30.3 µM | SF-268 19.4 µM

COC(=O)C(C(=O)C(=O)Nc1ccc([N+](=O)[O-])cc1)c1nc2ccc([N+](=O)[O-])cc2nc1O (stereo not given)
inactive: ACHN > 100 µM | 786-0 > 100 µM | TK-10 > 100 µM | SK-OV-3 > 100 µM | SK-MEL-5 65.6 µM | SNB-19 > 100 µM | OVCAR-5 > 100 µM | NCI-H226 > 100 µM | CCRF-CEM 55.2 µM | KM12 > 100 µM | A549 > 100 µM | CAKI-1 > 100 µM | U-251 > 100 µM | OVCAR-4 > 100 µM | SF-268 > 100 µM

CCN(CC)CCCOc1cc2c(cc1OC)C(=O)N1CCC[C@H]1C=N2
inactive: ACHN 29.6 µM | 786-0 30.5 µM | TK-10 61.8 µM | SK-OV-3 39.7 µM | SK-MEL-5 19.6 µM | PC-3 42.5 µM | SNB-19 49.1 µM | OVCAR-5 49.8 µM | NCI-H226 24.4 µM | MDA-MB-435 22.5 µM | Hs-578T 71.1 µM | CCRF-CEM 33.2 µM | KM12 20 µM | A549 > 100 µM | CAKI-1 18.2 µM | U-251 26.4 µM | OVCAR-4 8.38 µM | DU-145 35.2 µM | SF-268 41.4 µM

CCN(CC)CCCCC1CCN(CC(=O)N2c3ccccc3NC(=O)c3ccccc32)CC1
inactive: 786-0 > 100 µM | TK-10 > 100 µM | SK-OV-3 > 100 µM | SK-MEL-5 > 100 µM | SNB-19 > 100 µM | NCI-H226 > 100 µM | CCRF-CEM 64.9 µM | KM12 > 100 µM | A549 > 100 µM | CAKI-1 > 100 µM | OVCAR-4 > 100 µM | SF-268 > 100 µM

COC(=O)C1=CC2CC1C(S(=O)(=O)c1ccccc1)C2S(=O)(=O)c1ccccc1 (stereo not given)
inactive: ACHN 7.48 µM | 786-0 10.3 µM | TK-10 10.4 µM | SK-OV-3 44.3 µM | SK-MEL-5 16.9 µM | SNB-19 > 100 µM | OVCAR-5 14.7 µM | NCI-H226 17.6 µM | CCRF-CEM 2.92 µM | A549 24.8 µM | CAKI-1 7.83 µM | U-251 17.3 µM | OVCAR-4 17.5 µM | SF-268 22.9 µM
